According to ChEMBL document CHEMBL3769380, “New Synthetic Routes to Triazolo-benzodiazepine Analogues: Expanding the Scope of the Bump-and-Hole Approach for Selective Bromo and Extra-Terminal (BET) Bromodomain Inhibition” (J Med Chem, 2016):
pKd: −log10 of the molar value.

How the values were obtained:
DH5-alpha [1] = assay: Selectivity ratio of Kd for N-terminal His6-tagged BRD2 bromodomain 2 (unknown origin) expressed in competent Escherichia coli BL21(DE3) cells to Kd for BRD2 bromodomain 2 L383A mutant (unknown origin) expressed in competent Escherichia coli DH5-alpha cells; conditions: Homo sapiens
DH5-alpha [2] = assay: Selectivity ratio for BRD2 bromodomain 2 L383A mutant (unknown origin) expressed in competent Escherichia coli DH5-alpha cells over N-terminal His6-tagged BRD2 bromodomain 2 (unknown origin) expressed in competent Escherichia coli BL21(DE3) cells by differential scanning fluorimetry; conditions: Homo sapiens
DH5-alpha [3] = assay: Selectivity ratio for BRD2 bromodomain 1 L110A mutant (unknown origin) expressed in competent Escherichia coli DH5-alpha cells over N-terminal His6-tagged BRD2 bromodomain 1 (unknown origin) expressed in competent Escherichia coli BL21(DE3) cells by differential scanning fluorimetry; conditions: Homo sapiens
DH5-alpha [4] = assay: Selectivity ratio of Kd for N-terminal His6-tagged BRD2 bromodomain 1 (unknown origin) expressed in competent Escherichia coli BL21(DE3) cells to Kd for BRD2 bromodomain 1 L110A mutant (unknown origin) expressed in competent Escherichia coli DH5-alpha cells; conditions: Homo sapiens
[5] = molecular target: T1, Bromodomain-containing protein 2 (Homo sapiens, UniProt P25440); assay: Binding affinity to recombinant poly-His-tagged BRD2 bromodomain 1 (unknown origin) by isothermal titration calorimetry
T1 sequence (P25440 whole entry): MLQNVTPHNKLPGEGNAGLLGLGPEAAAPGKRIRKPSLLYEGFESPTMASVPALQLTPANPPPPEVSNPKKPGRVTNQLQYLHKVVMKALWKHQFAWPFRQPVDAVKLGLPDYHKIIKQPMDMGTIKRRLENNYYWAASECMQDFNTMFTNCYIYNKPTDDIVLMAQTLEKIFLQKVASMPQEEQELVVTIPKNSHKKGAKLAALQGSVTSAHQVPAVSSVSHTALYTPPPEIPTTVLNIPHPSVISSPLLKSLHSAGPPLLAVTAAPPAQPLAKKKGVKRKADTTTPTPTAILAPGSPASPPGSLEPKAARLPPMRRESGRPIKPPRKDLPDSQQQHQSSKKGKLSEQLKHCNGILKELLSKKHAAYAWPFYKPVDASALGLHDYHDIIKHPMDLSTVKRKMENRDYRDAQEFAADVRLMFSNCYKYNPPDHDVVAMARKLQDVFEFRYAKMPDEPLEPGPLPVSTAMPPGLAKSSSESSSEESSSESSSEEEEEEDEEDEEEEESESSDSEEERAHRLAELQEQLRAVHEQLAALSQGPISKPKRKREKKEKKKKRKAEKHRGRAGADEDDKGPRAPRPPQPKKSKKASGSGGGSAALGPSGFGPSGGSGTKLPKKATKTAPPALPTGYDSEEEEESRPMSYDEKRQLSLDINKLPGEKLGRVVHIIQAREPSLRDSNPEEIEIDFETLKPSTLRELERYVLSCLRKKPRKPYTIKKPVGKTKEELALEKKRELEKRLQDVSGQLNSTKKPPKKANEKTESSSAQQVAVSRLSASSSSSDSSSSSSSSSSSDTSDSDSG

[6] = molecular target: T1, Bromodomain-containing protein 2; assay: Binding affinity to recombinant poly-His-tagged BRD2 bromodomain 2 (unknown origin) by isothermal titration calorimetry

SMILES	Selectivity ratio (DH5-alpha [1])	Selectivity ratio (DH5-alpha [2])	Selectivity ratio (DH5-alpha [3])	Selectivity ratio (DH5-alpha [4])	pKd [5]	pKd [6]
CC[C@@H](C(=O)OC)[C@@H]1N=C(c2ccc(Cl)cc2)c2cc(OC)ccc2-n2c(C)nnc21	< 540	< 540	< 540	< 540		
CC(=O)NCCCCn1c2c(c3ccccc31)C(=O)NCC2					5.07	< 3.52
